Molecules are shown by their SMILES.

One test addresses PIK3CA (human) (UniProt P42336). Description: Assessment of PIK3CA Kinase Activity.
For another test, the target named is PIK3CG (human) (UniProt P48736). Description: Assessment of PIK3CG Kinase Activity.
Sequence of PIK3CG (human) (P48736 whole entry, looked up): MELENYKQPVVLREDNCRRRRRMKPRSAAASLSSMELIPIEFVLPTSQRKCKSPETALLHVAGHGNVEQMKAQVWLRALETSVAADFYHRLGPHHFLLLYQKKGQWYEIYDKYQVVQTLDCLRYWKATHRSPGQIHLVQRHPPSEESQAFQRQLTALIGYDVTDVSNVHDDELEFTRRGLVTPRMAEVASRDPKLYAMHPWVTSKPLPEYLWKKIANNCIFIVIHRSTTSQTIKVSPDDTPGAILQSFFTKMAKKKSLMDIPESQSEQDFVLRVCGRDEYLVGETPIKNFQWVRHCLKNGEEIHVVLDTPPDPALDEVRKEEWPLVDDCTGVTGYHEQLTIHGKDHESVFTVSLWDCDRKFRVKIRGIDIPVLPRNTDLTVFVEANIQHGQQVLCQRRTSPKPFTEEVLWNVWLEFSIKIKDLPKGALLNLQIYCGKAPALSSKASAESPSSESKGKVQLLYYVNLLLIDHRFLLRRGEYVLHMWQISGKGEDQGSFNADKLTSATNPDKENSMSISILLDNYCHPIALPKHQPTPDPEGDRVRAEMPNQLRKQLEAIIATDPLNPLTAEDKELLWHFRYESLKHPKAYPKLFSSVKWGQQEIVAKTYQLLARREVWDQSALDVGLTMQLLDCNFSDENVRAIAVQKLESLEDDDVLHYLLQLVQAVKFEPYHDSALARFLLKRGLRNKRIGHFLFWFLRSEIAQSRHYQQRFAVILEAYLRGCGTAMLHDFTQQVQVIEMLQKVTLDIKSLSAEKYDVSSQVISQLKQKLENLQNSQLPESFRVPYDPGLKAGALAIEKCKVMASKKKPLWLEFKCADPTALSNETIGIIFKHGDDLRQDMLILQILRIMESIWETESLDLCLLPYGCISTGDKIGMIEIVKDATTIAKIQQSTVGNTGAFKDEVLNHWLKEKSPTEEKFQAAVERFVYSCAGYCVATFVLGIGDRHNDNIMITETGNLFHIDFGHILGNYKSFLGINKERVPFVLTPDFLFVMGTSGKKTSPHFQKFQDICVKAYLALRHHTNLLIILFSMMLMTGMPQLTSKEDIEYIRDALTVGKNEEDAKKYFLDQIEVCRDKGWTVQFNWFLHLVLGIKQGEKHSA

Sequence of PIK3CA (human) (P42336 whole entry, looked up): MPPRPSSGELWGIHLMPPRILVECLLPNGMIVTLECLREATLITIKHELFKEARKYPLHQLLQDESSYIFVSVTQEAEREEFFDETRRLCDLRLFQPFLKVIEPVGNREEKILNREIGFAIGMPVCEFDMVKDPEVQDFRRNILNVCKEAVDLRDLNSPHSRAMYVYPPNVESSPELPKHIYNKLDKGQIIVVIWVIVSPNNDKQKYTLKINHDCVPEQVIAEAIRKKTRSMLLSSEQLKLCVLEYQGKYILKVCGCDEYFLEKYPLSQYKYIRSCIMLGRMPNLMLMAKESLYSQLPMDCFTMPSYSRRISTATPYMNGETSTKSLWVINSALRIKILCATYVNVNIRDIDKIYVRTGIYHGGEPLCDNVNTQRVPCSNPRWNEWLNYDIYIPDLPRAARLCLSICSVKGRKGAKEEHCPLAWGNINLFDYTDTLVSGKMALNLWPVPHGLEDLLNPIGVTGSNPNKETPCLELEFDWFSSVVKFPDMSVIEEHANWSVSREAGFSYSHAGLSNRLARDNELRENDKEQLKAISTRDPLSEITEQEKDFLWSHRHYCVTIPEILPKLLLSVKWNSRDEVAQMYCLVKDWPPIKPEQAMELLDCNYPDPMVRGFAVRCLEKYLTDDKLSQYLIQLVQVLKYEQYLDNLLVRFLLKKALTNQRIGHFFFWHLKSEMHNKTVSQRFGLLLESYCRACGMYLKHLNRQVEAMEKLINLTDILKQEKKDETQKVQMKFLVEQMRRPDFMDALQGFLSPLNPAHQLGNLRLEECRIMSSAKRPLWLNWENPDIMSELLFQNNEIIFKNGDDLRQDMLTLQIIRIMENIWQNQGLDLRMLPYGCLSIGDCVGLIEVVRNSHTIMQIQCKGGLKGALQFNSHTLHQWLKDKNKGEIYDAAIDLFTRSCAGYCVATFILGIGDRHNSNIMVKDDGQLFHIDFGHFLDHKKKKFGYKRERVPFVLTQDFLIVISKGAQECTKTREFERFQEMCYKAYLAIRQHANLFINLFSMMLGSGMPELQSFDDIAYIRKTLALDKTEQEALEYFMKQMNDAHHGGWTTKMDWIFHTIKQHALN

Regarding `O=C(Nc1ccc(-c2nc3c(c(N4C5CCC4COC5)n2)CCNC3)cc1)Nc1cccnc1`, the half-maximal inhibitory concentration (IC50) at PIK3CA (human) is 1.79 µM; against PIK3CG (human) it was over 10 µM.

`CNC(=O)Nc1ccc(-c2nc3c(c(N4CC5CCC(C4)O5)n2)CCN(S(=O)(=O)c2ccccc2)C3)cc1`: the concentration for half-maximal inhibition (IC50) at PIK3CG (human) amounted to 0.205 µM.

Take `CNC(=O)Nc1ccc(-c2nc3c(c(N4CC5CCC(C4)O5)n2)CCN(C)C3)cc1`: the IC50 against PIK3CA (human) was 3.34 µM; against PIK3CG (human), over 10 µM.

`O=C(Nc1ccc(-c2nc3c(c(N4CCOCC4)n2)CCNC3)cc1)Nc1cccnc1`: the IC50 against PIK3CA (human) stood at 0.066 µM; on PIK3CG (human), 0.715 µM.

In the case of `CNC(=O)Nc1ccc(-c2nc3c(c(N4CC5CCC(C4)O5)n2)CCN(S(C)(=O)=O)C3)cc1`, the IC50 against PIK3CA (human) is 0.557 µM; on PIK3CG (human), over 10 µM.

Regarding `O=C(Nc1ccc(-c2nc3c(c(N4CCOCC4)n2)CNC3)cc1)Nc1cccnc1`, the half-inhibitory concentration (IC50) on PIK3CA (human) came out at 0.005 µM; at PIK3CG (human), 0.068 µM.

Consider `CNC(=O)Nc1ccc(-c2nc3c(c(N4CC5CCC(C4)O5)n2)CCN(C(=O)c2ccc(C(C)(C)C)cc2)C3)cc1`, for which, at PIK3CG (human), the half-inhibitory concentration (IC50) worked out at 3.35 µM.

Consider `CN(C)C1CCN(C(=O)c2ccc(NC(=O)Nc3ccc(-c4nc5c(c(N6CC7CCC(C6)O7)n4)CCN(S(C)(=O)=O)C5)cc3)cc2)CC1`, for which the IC50 against PIK3CA (human) is 2.69 µM; at PIK3CG (human), over 10 µM.

`CS(=O)(=O)N1CCc2c(nc(-c3ccc(NC(=O)Nc4cccnc4)cc3)nc2N2C3CCC2COC3)C1`: the values for the half-inhibitory concentration (IC50) on PIK3CA (human) and against PIK3CG (human) were 0.118 µM and 3.99 µM, respectively.

Regarding `CCN1CCc2c(nc(-c3ccc(NC(=O)Nc4ccncc4)cc3)nc2N2CC3CCC(C2)O3)C1`, the 50% inhibitory concentration (IC50) against PIK3CA (human) is 0.153 µM.

Turning to `CNC(=O)Nc1ccc(-c2nc3c(c(N4CC5CCC(C4)O5)n2)CCN(S(=O)(=O)c2ccc(C#N)cc2)C3)cc1`, at PIK3CG (human), the half-maximal inhibitory concentration (IC50) stood at 4 µM.

In turn, `CNC(=O)Nc1ccc(-c2nc3c(c(N4CC5CCC(C4)O5)n2)CCN(C(=O)NC2CCCCC2)C3)cc1` registered an IC50 on PIK3CG (human) of 0.6 µM.

At PIK3CG (human), `CNC(=O)Nc1ccc(-c2nc3c(c(N4CC5CCC(C4)O5)n2)CCN(S(=O)(=O)c2ccc(F)cc2)C3)cc1` came in with an IC50 of 0.6 µM.

At PIK3CA (human), `CCN1CCc2c(nc(-c3ccc(NC(=O)NC4CC4)cc3)nc2N2C3CCC2COC3)C1` came in with a concentration for half-maximal inhibition (IC50) of 4.85 µM.

Take `COC(=O)N1CCc2c(nc(-c3ccc(NC(=O)Nc4ccncc4)cc3)nc2N2C3CCC2COC3)C1`: the IC50 against PIK3CA (human) turned out to be 0.377 µM.

Consider `CNC(=O)Nc1ccc(-c2nc3c(c(N4CC5CCC(C4)O5)n2)CCN(S(=O)(=O)c2ccc(Cl)cc2)C3)cc1`, for which the IC50 on PIK3CG (human) was determined as 3.1 µM.

On PIK3CA (human), `CCN1CCc2c(nc(-c3ccc(NC(=O)Nc4ccc(C(=O)N5CCN(C)CC5)cc4)cc3)nc2N2C3CCC2COC3)C1` returned a half-maximal inhibitory concentration (IC50) of 0.211 µM.

For `CCN1CCc2c(nc(-c3ccc(NC(=O)Nc4ccc(CN(C)C)cc4)cc3)nc2N2C3CCC2COC3)C1`, on PIK3CA (human), the IC50 was 0.884 µM.

Turning to `CN1CCc2c(nc(-c3ccc(NC(=O)Nc4ccncc4)cc3)nc2N2C3CCC2COC3)C1`, the IC50 at PIK3CA (human) was found to be 2.77 µM.

At PIK3CA (human), `CCN1CCc2c(nc(-c3ccc(NC(=O)Nc4ccc(C#N)cc4)cc3)nc2N2C3CCC2COC3)C1` gave a half-maximal inhibitory concentration (IC50) of 1.65 µM.

`CNC(=O)Nc1ccc(-c2nc3c(c(N4CC5CCC(C4)O5)n2)CCN(C(=O)c2ccccc2OC)C3)cc1`: the half-inhibitory concentration (IC50) on PIK3CG (human) came out at 0.9 µM.

As to `CC(C)(C)OC(=O)N1CCc2c(nc(-c3ccc(NC(=O)Nc4ccncc4)cc3)nc2N2CC3CCC(C2)O3)C1`, at PIK3CA (human), the half-inhibitory concentration (IC50) was 0.459 µM.

On PIK3CG (human), `CNC(=O)Nc1ccc(-c2nc3c(c(N4CC5CCC(C4)O5)n2)CCN(C(=O)CCC2CCCC2)C3)cc1` yielded an IC50 of 1.05 µM.

For the compound `CC(C)N1CCc2c(nc(-c3ccc(NC(=O)Nc4ccncc4)cc3)nc2N2C3CCC2COC3)C1`, the IC50 against PIK3CA (human) amounted to 2.47 µM.

`CCCCNC(=O)N1CCc2c(nc(-c3ccc(NC(=O)NC)cc3)nc2N2CC3CCC(C2)O3)C1` returned an IC50 against PIK3CG (human) of 0.375 µM.

Consider `CCN1CCc2c(nc(-c3ccc(NC(=O)Nc4ccc(C(=O)NC(C)C)cc4)cc3)nc2N2C3CCC2COC3)C1`, for which the half-maximal inhibitory concentration (IC50) at PIK3CA (human) was 0.528 µM.

Turning to `CCN1CCc2c(nc(-c3ccc(NC(=O)Nc4ccccc4)cc3)nc2N2C3CCC2COC3)C1`, the half-maximal inhibitory concentration (IC50) against PIK3CA (human) worked out at 0.917 µM.

Turning to `O=C(Nc1ccncc1)Nc1ccc(-c2nc3c(c(N4C5CCC4COC5)n2)CCN(CC(F)(F)F)C3)cc1`, the IC50 against PIK3CA (human) was 1.71 µM.

With `CCN1CCc2c(nc(-c3ccc(NC(=O)Nc4ccc(N5CCN(C)CC5)cc4)cc3)nc2N2C3CCC2COC3)C1`, the IC50 at PIK3CA (human) worked out at 1.92 µM.

As for `CCN1CCc2c(nc(-c3ccc(NC(=O)Nc4ccc(C(=O)NC)cc4)cc3)nc2N2C3CCC2COC3)C1`, the IC50 on PIK3CA (human) was 0.861 µM.

In the case of `CCN1CCc2c(nc(-c3ccc(NC(=O)Nc4ccc(C(=O)OC)cc4)cc3)nc2N2C3CCC2COC3)C1`, on PIK3CA (human), the IC50 came out at 1.28 µM.

Turning to `CCCCC(=O)N1CCc2c(nc(-c3ccc(NC(=O)NC)cc3)nc2N2CC3CCC(C2)O3)C1`, on PIK3CG (human), the concentration for half-maximal inhibition (IC50) was 0.545 µM.

At PIK3CA (human), `CCN1CCc2c(nc(-c3ccc(NC(=O)Nc4ccc(C(N)=O)cc4)cc3)nc2N2C3CCC2COC3)C1` yielded a half-inhibitory concentration (IC50) of 1.01 µM.

As to `CNC(=O)Nc1ccc(-c2nc3c(c(N4CC5CCC(C4)O5)n2)CCN(C(=O)c2ccccc2F)C3)cc1`, the IC50 on PIK3CG (human) stood at 0.36 µM.

At PIK3CG (human), `C=CCNC(=O)N1CCc2c(nc(-c3ccc(NC(=O)NC)cc3)nc2N2CC3CCC(C2)O3)C1` returned an IC50 of 0.375 µM.

`CNC(=O)Nc1ccc(-c2nc3c(c(N4CC5CCC(C4)O5)n2)CCN(C(=O)OCC(C)C)C3)cc1`: the IC50 on PIK3CG (human) turned out to be 0.35 µM.

With `COCCN1CCc2c(nc(-c3ccc(NC(=O)Nc4ccncc4)cc3)nc2N2CC3CCC(C2)O3)C1`, the half-maximal inhibitory concentration (IC50) against PIK3CA (human) is 0.101 µM.

For orientation: IC50 means the concentration that inhibits the measured activity by half.
